Tests used:
CIAP1-TRAF3 complexes = assay: TRAF3 immunoprecipitation (ubiquitin-Lys-48, CIAP1) in PBMCs from ESRD patients; type: in vivo, human
Procedure: Intracellular protein and mRNA levels were measured in PBMCs from ESRD patients on hemodialysis. Inclusion criteria were as follows: age >45 years; male sex; informed consent; and absence of active inflammatory, infectious, or malignant diseases at the initiation or during the study. This study was approved by the IIS-Fundación Jiménez Diaz Ethics Committee. Patients were enrolled after providing written informed consent. PBMCs were separated from whole blood samples (30 ml into EDTA tubes) by a density gradient centrifugation method using Ficoll density gradient centrifugation. In total, 50x10^6 of PBMCs were obtained from 30 ml of whole blood and 6x10^6 PBMCs were used to isolate protein, RNA and nuclear/cytosolic protein levels using the NE-PER Reagent (Pierce) following the manufacturer's instructions.
Cells growing in tissue culture dish plates, were lysed in 300-500 µl Triton-NP-40 lysis buffer [50 mmol/L Tris-HCl pH 8, 150 mmol/L NaCl, 1 mmol/L phenylmethylsulphonylfluoride, 1% NP-40/IGEPAL, and a phosphatase-inhibitor cocktail (Set II, Calbiochem)], scraped off the dish and incubated 1 hour to 4°C with shaking. Cell lysates were precleared by incubating with 10 µl protein A-agarose bead slurries (0.5 mL agarose/2 mL phosphate-buffered saline) for 30 min at 4°C, and then centrifuged three times for 5 minutes at 2500 rpm, to wash supernatants. […]

NF-κB 1 pathway = assay: Canonical NF-κB1 activation in TWEAK-stimulated PBMCs from healthy donors; type: cell-based, Human; conditions: 12 µM paricalcitol, TWEAK 100 ng/ml, phosphorylated p65
TRAF3 = assay: Renal TRAF3 (western blot), folic acid-induced renal injury in mice; type: in vivo; conditions: folic acid 300 mg/kg model; paricalcitol 25 µg/kg/day i.p.
Procedure: (§1) All animal procedures were performed according to the guidelines of animal research in the European Community and with prior approval by the Ethics Committee of the Health Research of the IIS-Fundacion Jiménez Díaz. For in vivo studies, mice received a daily intraperitoneal injection of the VDRA Paricalcitol starting 48 hours prior to induction of kidney damage.
(§2) At the time of sacrifice, animals were anesthetized with 5 mg/kg xylazine (Rompun, Bayer AG) and 35 mg/kg ketamine (Ketolar, Pfizer) and the kidneys perfused in situ with cold saline before removal. Then, kidney portions were fixed in formalin buffer for immunohistochemistry studies or immediately frozen in liquid nitrogen for gene and protein studies.
(§3) Folic acid nephropathy is a classical model of kidney tubulointerstitial injury and inflammation that has been reported in humans. Mice received a single intraperitoneal injection of folic acid (Sigma) 300 mg/kg in 0.3 mol/l sodium bicarbonate or vehicle, and were sacrificed 48 hours later. […]
For western blot, cell (25 µg/lane) and kidney (100-150 µg/lane) protein extracts were separated on 6%-12% polyacrylamide-SDS gels under reducing conditions. […] Autoradiographs were scanned using the Gel Doc™ EZ imager and analyzed with the Image Lab 3.0 software (BioRad).

[1] = system: renal inflammation induced by folic acid; assay: Renal inflammatory cell infiltration, folic acid-induced renal injury in mice; type: in vivo; conditions: folic acid 300 mg/kg model; paricalcitol 25 µg/kg/day i.p.; anti-F4/80 and anti-CD3 immunohistochemistry
Procedure: as §1, §2, §3
Paraffin-embedded kidney sections (3 µm) were stained using conventional methods. […] For each sample (processed by duplicate in a blinded manner), the average value was obtained from the analysis of 4 fields (20X objective) as density/mm2 or percentage stained area vs total analyzed area. Data are expressed as fold increase over control mice, as mean ± SEM of 8-10 animals per group. […]

[2] = Renal function (serum BUN), folic acid-induced renal injury in mice; type: in vivo; conditions: folic acid 300 mg/kg model; paricalcitol 25 µg/kg/day i.p.
Procedure: as §1
Folic acid nephropathy is a classical model of kidney tubulointerstitial injury and inflammation that has been reported in humans. Mice received a single intraperitoneal injection of folic acid (Sigma) 300 mg/kg in 0.3 mol/l sodium bicarbonate or vehicle, and were sacrificed 48 hours later. Two groups were studied; untreated or paricalcitol treated (25 µg/kg/day, i.p., Abbot), n=7-8 per group starting 48 hours before FA injection. The dose of paricalcitol was chosen based on dose-finding preliminary experiments.

Question: With C[C@H](/C=C/[C@H](C)C(C)(C)O)[C@H]1CC[C@H]2/C(=C/C=C3C[C@@H](O)C[C@H](O)C3)CCC[C@]12C [paricalcitol] as the molecule, how does the “TRAF3 ubiquitination and CIAP1-TRAF3 interaction” value (CIAP1-TRAF3 complexes; PBMCs of paricalcitol-treated ESRD patients, TRAF3 immunoprecipitation) read?
Answer: significantly lowering to values in the range of healthy controls

Question: And the CIAP-1 levels (CIAP1-TRAF3 complexes; whole protein extracts of PBMCs, paricalcitol-treated ESRD patients)?
Answer: close to control values

Question: What about the “canonical NF-κB 1 pathway” value (NF-κB 1 pathway) of the same molecule?
Answer: without modulating

Question: And the “renal TRAF3 protein levels” value (TRAF3)?
Answer: restored renal TRAF3 protein levels to values of control mice

Question: And the “renal inflammatory cell infiltration” value [1]?
Answer: prevented

Question: And the “renal function assessed by serum BUN levels” value [2]?
Answer: restored changes in renal function

From patent EP3748362A1, “IN VITRO METHOD FOR DETECTING RENAL DISEASE” (Fundacion Instituto De Investigacion Sanitaria Fundacion …, priority 2019, dated 2020)
